Assay results published in patent US12581252B2, “Substituted pyrrolo[3,4-b]pyridines as PI3K-α inhibitors” (Relay Therapeutics, Inc., priority 2020, dated 2026).
pIC50: −log10 of the molar value.

Molecular target: H1047R PIK3CA enzyme (Homo sapiens, UniProt P42336, H1047R)
Test: ADP-Glo Biochemical PIK3CA Kinase Assay

Sequence of H1047R PIK3CA enzyme (P42336 whole entry H1047R): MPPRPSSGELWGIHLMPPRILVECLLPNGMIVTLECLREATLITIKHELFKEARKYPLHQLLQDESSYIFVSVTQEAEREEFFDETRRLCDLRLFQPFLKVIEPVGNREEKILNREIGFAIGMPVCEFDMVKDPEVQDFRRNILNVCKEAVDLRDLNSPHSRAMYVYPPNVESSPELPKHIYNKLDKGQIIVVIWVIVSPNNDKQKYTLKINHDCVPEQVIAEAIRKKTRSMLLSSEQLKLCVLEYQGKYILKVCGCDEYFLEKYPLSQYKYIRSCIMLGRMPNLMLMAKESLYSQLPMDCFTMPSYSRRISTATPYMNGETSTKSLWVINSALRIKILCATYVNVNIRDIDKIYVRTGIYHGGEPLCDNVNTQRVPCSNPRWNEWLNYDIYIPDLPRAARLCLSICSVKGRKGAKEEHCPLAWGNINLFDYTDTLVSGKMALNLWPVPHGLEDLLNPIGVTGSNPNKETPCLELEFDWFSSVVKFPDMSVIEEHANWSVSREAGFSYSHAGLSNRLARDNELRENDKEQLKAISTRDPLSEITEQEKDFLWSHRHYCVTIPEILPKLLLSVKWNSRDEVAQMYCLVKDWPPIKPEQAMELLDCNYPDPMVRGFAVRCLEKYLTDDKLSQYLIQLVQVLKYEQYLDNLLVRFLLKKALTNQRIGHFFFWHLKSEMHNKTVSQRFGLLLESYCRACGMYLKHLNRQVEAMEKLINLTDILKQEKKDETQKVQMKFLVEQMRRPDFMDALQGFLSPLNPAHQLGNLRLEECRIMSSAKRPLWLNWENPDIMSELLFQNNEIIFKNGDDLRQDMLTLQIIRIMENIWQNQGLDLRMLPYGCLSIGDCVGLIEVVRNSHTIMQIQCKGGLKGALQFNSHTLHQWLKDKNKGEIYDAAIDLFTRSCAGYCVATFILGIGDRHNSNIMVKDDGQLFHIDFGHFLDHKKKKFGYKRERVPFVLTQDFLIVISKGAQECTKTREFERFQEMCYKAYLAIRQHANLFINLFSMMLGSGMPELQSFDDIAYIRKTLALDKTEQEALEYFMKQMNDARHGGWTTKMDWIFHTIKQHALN
Sequence of H1047R PIK3CA enzyme (P27986 whole entry partner): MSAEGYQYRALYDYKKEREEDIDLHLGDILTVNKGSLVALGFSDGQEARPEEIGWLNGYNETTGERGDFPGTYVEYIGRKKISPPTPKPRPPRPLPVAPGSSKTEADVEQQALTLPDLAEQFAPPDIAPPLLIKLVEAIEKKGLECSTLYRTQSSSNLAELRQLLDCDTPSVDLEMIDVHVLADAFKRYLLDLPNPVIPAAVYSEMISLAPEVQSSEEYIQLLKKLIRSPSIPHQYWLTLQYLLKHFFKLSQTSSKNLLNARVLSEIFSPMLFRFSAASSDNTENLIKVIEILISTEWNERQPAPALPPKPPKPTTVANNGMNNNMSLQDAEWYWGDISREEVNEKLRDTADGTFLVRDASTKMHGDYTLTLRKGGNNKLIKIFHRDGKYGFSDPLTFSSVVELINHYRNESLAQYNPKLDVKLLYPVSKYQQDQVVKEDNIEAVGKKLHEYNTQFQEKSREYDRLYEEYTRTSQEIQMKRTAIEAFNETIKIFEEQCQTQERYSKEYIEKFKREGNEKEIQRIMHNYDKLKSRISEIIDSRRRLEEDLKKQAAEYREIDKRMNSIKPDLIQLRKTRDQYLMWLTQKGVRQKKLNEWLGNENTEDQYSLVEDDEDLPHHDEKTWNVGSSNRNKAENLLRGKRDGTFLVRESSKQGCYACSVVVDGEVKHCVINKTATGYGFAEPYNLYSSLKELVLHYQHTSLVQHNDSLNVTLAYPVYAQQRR

`O=C(Nc1cc(-c2cn3ccnc3cn2)cc2c1[C@H](c1cc(F)ccc1Cl)NC2=O)c1cc(F)cc(C(F)(F)F)c1` [Compound I-1330] and `Nc1ncc(-c2cc(NC(=O)c3cc(F)cc(C(F)(F)F)c3)c3c(c2)C(=O)NC3c2cc(F)ccc2Cl)cn1` (centres unmarked) [Compound I-885] cannot be ordered by pIC50: at least 7.00 for the first, at least 7.00 for the second.

First: C[C@@]1(O)CN(C(=O)Nc2cccc3c2[C@@H](c2cc(F)ccc2Cl)NC3=O)c2ccccc21 (single isomer, unassigned) [Compound I-2204]
Second: O=C1N[C@@H](c2cc(F)ccc2Cl)c2c(NC(=O)N3C[C@H](O)c4cccc(F)c43)cccc21 (single isomer, unassigned) [Compound I-2209]
The pIC50 of the first is higher: 5.00 to 6.00 for the first, 4.00 to 5.00 for the second.

`O=C1NC(c2cc(F)ccc2Cl)c2c(NC(=O)N3CC4(CC4)c4cc(F)ccc43)cc(Br)cc21` (centres unmarked) [Compound I-1512] and `O=C(Nc1cc(Br)cc2c1C(c1cc(F)ccc1Cl)NC2=O)c1cc(F)cc(OC(F)F)c1` (centres unmarked) [Compound I-833] fall in the same range of pIC50: 6.30 to 7.00 for the first, 6.30 to 7.00 for the second.

Compared with `O=C1NC(c2cc(F)ccc2Cl)c2c(NC(=O)c3ccnc4ccc(Cl)cc34)cc(Br)cc21` (centres unmarked) [Compound I-606], `O=C1NC(c2cc(F)ccc2Cl)c2c(Nc3coc4ccccc34)cc(Br)cc21` (centres unmarked) [Compound I-1691] is higher in pIC50: 4.00 to 5.00 for the first, 5.00 to 6.00 for the second.

`O=C1N[C@@H](c2cc(F)ccc2Cl)c2c(NC(=O)N3CCC[C@@](O)(C(F)(F)F)C3)cccc21` (single isomer, unassigned) [Compound I-2116] and `O=C1NC(c2cc(F)ccc2Cl)c2c(NC(=O)N3CCC4(CC4)C3)cccc21` (centres unmarked) [Compound I-2468] fall in the same range of pIC50: 4.00 to 5.00 for the first, 4.00 to 5.00 for the second.

First: Cc1cc2ncnn2cc1-c1cc(NC(=O)c2cc(F)cc(C(F)(F)F)c2)c2c(c1)C(=O)N[C@@H]2c1cc(F)ccc1Cl [Compound I-1873]
Second: CC(=O)Nc1cc(NC(=O)c2cc(F)cc(C(F)(F)F)c2)c2c(c1)C(=O)N[C@H]2c1cc(F)ccc1Cl [Compound I-461]
The pIC50 of the first is lower: 5.00 to 6.00 for the first, at least 7.00 for the second.

`O=C1NC(c2cc(F)ccc2Cl)c2c1cc(-c1ccc3ncnn3c1)cc2N1C(=O)CCC1=O` (centres unmarked) [Compound I-1990] and `O=C1NC(c2cc(F)ccc2Cl)c2c(Br)cc(-c3ccc4ncnn4c3)cc21` (centres unmarked) [Compound I-1672] fall in the same range of pIC50: 4.00 to 5.00 for the first, 4.00 to 5.00 for the second.

`CN1CC[C@H](Nc2cc(NC(=O)c3cc(F)cc(C(F)(F)F)c3)c3c(c2)C(=O)NC3c2cc(F)ccc2Cl)C1` (some centres unmarked) [Compound I-311] and `O=C(Nc1cc(CS(=O)(=O)Cc2ccncc2)cc2c1C(c1cc(F)ccc1Cl)NC2=O)c1cc(F)cc(C(F)(F)F)c1` (centres unmarked) [Compound I-1470] cannot be ordered by pIC50: at least 7.00 for the first, at least 7.00 for the second.

`N#Cc1cnccc1-c1cc(NC(=O)c2cc(F)cc(C(F)(F)F)c2)c2c(n1)C(=O)NC2c1cc(F)ccc1Cl` (centres unmarked) [Compound I-549] and `O=C(Nc1cc(-c2ccncc2)nc2c1C(c1cc(F)ccc1Cl)NC2=O)c1cc(F)cc(Cl)c1` (centres unmarked) [Compound I-458] cannot be ordered by pIC50: at least 7.00 for the first, 6.30 to 7.00 for the second.

`Cc1ccccc1C1NC(=O)c2cccc(NC(=O)C3CCc4ccccc43)c21` (centres unmarked) [Compound I-256] and `Cc1ccccc1C1NC(=O)c2cccc(NC(=O)N3CCCc4ccccc43)c21` (centres unmarked) [Compound I-55] fall in the same range of pIC50: 5.00 to 6.00 for the first, 5.00 to 6.00 for the second.

`O=C1NC(c2cc(F)ccc2Cl)c2c(NC(=O)N3CCC(O)(C(F)(F)F)C3)cc(-c3ccc4ncnn4c3)cc21` (centres unmarked) [Compound I-1904] and `O=C1NC(c2cc(F)ccc2Cl)c2c(NC(=O)C3CCC3)cc(-c3ccc4ncnn4c3)cc21` (centres unmarked) [Compound I-1778] fall in the same range of pIC50: 4.00 to 5.00 for the first, 4.00 to 5.00 for the second.

Compared with `O=C1N[C@@H](c2cc(F)ccc2Cl)c2c(NC(=O)N3C[C@@H](O)c4cc(F)ccc43)cc(-n3ccccc3=O)cc21` (single isomer, unassigned) [Compound I-2351], `N#CC(C(=O)Nc1cc(-c2ccc3ncnn3c2)cc2c1C(c1cc(F)ccc1Cl)NC2=O)c1ccccc1` (centres unmarked) [Compound I-1834] is lower in pIC50: 6.30 to 7.00 for the first, 5.00 to 6.00 for the second.

First: O=C(Nc1cccc2c1C(c1cc(F)ccc1Cl)NC2=O)c1cc(Cl)cc2c1OCC2 (centres unmarked) [Compound I-596]
Second: Cc1ccc2c(c1)N(C(=O)Nc1cccc3c1CN(C)C3=O)CC2 [Compound I-405]
The pIC50 of the first is higher: 5.00 to 6.00 for the first, 4.00 to 5.00 for the second.
